The structures appear in SMILES notation.

Bliss excess data for three compounds are collected here from the supplement of paper PMC11061612.

Common to all, as to test: Bliss excess, mean over the matrix (fraction); higher = more synergy
The subject of experiment [1] is NCI-H2405 (Lung Adenocarcinoma). The gist of the method: (§1)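 Bliss excess equals the observed combination effect minus the expected value EA + EB − EA·EB, where EA and EB are the effects of each agent alone. Combination Emax is the second-highest inhibition within the matrix. Inhibition was scaled from CellTiter-Glo 2.0 luminescence, with 0 set by vehicle wells and 1 by blank wells, after 72 hours of two-drug dosing of cells plated in 1536-well plates.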

Experiment [2] deals with NCI-H1573 (Lung Adenocarcinoma). The gist of the method: as §1
Experiment [3] has as its system OCUM-1 (Gastric Carcinoma). Summed up: as §1
In experiment [4] the test system is LOU-NH91 (Squamous Cell Lung Carcinoma). Summed up:
as §1

Experiment [5] concerns SNU-C1 (Colorectal Carcinoma). The gist of the method: as §1
The next experiment has as its system A704 (Kidney Carcinoma). Summed up: as §1
For experiment [6], the system named is LC4-1 (B-Lymphoblastic Leukemia). Summed up:
as §1

For experiment [7], the system named is HC-1 (Other Blood Carcinomas). The gist of the method: as §1
The next experiment concerns IMR-5 (Neuroblastoma). The gist of the method: as §1
Experiment [8] deals with HSC-2 (Oral Cavity Carcinoma). Summed up:
as §1

For experiment [9], the system named is NCI-N87 (Gastric Carcinoma). Summed up:
as §1

A further experiment has as its system BT-20 (Breast Carcinoma). The gist of the method:
as §1

A further experiment relates to RPMI-7951 (Melanoma). The gist of the method: as §1
Experiment [10] deals with PF-382 (T-Lymphoblastic Leukemia). The gist of the method: as §1
The next experiment has as its system U-87-MG (Glioblastoma). The gist of the method:
as §1

Experiment [11] deals with KP-2 (Pancreatic Carcinoma). Summed up:
as §1

In a further experiment the test system is EW-3 (Ewing's Sarcoma). The gist of the method:
as §1

Another experiment concerns GI-1 (Glioblastoma). Summed up: as §1
In experiment [12] the test system is NCI-H513 (Other Solid Carcinomas). Summed up:
as §1

Experiment [13] concerns DG-75 (Burkitt's Lymphoma). The gist of the method:
as §1

With `C[C@@H](c1ccc2nccn2c1)n1nnc2ncc(-c3cnn(C)c3)nc21` [Savolitinib] + CC1(C)CCC(CN2CCN(c3ccc(C(=O)NS(=O)(=O)c4ccc(NCC5CCOCC5)c([N+](=O)[O-])c4)c(Oc4cnc5[nH]ccc5c4)c3)CC2)=C(c2ccc(Cl)cc2)C1 [Venetoclax] (first compound max 1 µM, 7x7, partner max 1 µM), the Bliss excess in [1] was -0.0793; in experiment [2], -0.0802; in experiment [3] it was -0.0368; in [4], -0.0801; in experiment [5] it was -0.0363; in the experiment with A704 (Kidney Carcinoma), -0.0516. Besides, the Bliss excess was -0.0091 in experiment [6]; -0.0824 in experiment [7]; -0.0158 with IMR-5 (Neuroblastoma); 0.0064 in experiment [8]; -0.0341 in experiment [9]; -0.0427 in the experiment with BT-20 (Breast Carcinoma). The Bliss excess in the experiment with RPMI-7951 (Melanoma) was -0.0432; in [10], -0.0402; in the experiment on U-87-MG (Glioblastoma) it was -0.0699; in experiment [11], -0.0518; in the experiment on EW-3 (Ewing's Sarcoma), 0.0364; in the experiment on GI-1 (Glioblastoma) it was 0.0079. Also, the Bliss excess in experiment [12] was -0.0719; in experiment [13], -0.0021.

As to `CN(CCO)CC[C@H](CSc1ccccc1)Nc1ccc(S(=O)(=O)NC(=O)c2ccc(N3CCC([C@@H](O)c4ccccc4-c4ccc(Cl)cc4)CC3)cc2)cc1S(=O)(=O)C(F)(F)F` [AZD4320] + C1CN(CCC1(C(=O)N[C@@H](CCO)C2=CC=C(C=C2)Cl)N)C3=NC=NC4=C3C=CN4 [Capivasertib] (first compound max 1 µM, 7x7, partner max 3 µM), the Bliss excess in experiment [1] was -0.0513; in [2] it was 0.0699; in [3], -0.0087; in experiment [4], -0.067; in experiment [5] it was -0.0886; in the experiment on A704 (Kidney Carcinoma) it was -0.1. The Bliss excess in experiment [6] was 0.0319; in experiment [7], -0.0058; in the experiment on IMR-5 (Neuroblastoma) it was 0.154; in [8], -0.0379; in experiment [9], -0.103; in the experiment on BT-20 (Breast Carcinoma), 0.0427. In addition, the Bliss excess was 0.0055 in the experiment on RPMI-7951 (Melanoma); 0.0458 in experiment [10]; -0.045 in the experiment with U-87-MG (Glioblastoma); -0.0583 in experiment [11]; -0.0687 in the experiment on EW-3 (Ewing's Sarcoma); 0.0172 in the experiment with GI-1 (Glioblastoma). The Bliss excess is -0.0501 in experiment [12] and -0.0093 in experiment [13].

`CC(=O)c1c(C)c2cnc(Nc3ccc(N4CCNCC4)cn3)nc2n(C2CCCC2)c1=O` [Palbociclib] + Cn1cnc2c(F)c(Nc3ccc(Br)cc3Cl)c(C(=O)NOCCO)cc21 [Selumetinib] (first compound max 10 µM, 7x7, partner max 10 µM): the Bliss excess was -0.016 in [1]; 0.0017 in experiment [2]; -0.0321 in experiment [3]; -0.0975 in experiment [4]; 0.0288 in [5]; -0.0874 with A704 (Kidney Carcinoma). Moreover, the Bliss excess in experiment [6] was 0.0312; in experiment [7], -0.0354; in the experiment with IMR-5 (Neuroblastoma), 0.0682; in experiment [8] it was 0.0254; in experiment [9], 0.0117; in the experiment with BT-20 (Breast Carcinoma), 0.0253. Moreover, the Bliss excess in the experiment with RPMI-7951 (Melanoma) was 0.0492; in experiment [10], 0.043; in the experiment on U-87-MG (Glioblastoma), -0.0929; in [11] it was -0.0153; with EW-3 (Ewing's Sarcoma), 0.0301; in the experiment on GI-1 (Glioblastoma), -0.0734. Besides, the Bliss excess in experiment [12] is -0.035; in experiment [13], 0.028.
